pIC50: −log10 of the molar value.

Assay [1] deals with T1, human recombinant GST cleaved CSNK1D (Homo sapiens, UniProt P48730).
T1 construct: GST (cleaved yes); purchased University of Dundee clone DU 19064
Kind of assay: Purified Enzyme Assay (ADP-Glo CSNK1D Kinase Assay). Type of assay: biochemical. The note with it: 2 nM CSNK1D; peptide substrate 150 μM; ATP 20 μM; 45 minutes at room temperature. In short, it runs like this: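 Percent activity derived from ADP-Glo quantification of ADP produced. Reactions: compound dose-response with human recombinant GST-cleaved CSNK1D, ATP and substrate peptide PLSRTL-pS-VASLPGL, incubated 45 min at room temperature.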
In general terms: ADP-Glo first removes unused ATP, then detects ADP through luciferase.

A further assay has as its target T2, human CSNK1D (Homo sapiens, UniProt P48730).
T2 construct: expressed in transfected cells
Kind of assay: Whole Cell nBRET CSNK1D Binding Assay. The note with it: living CHO cells stably expressing human CSNK1D tagged with nanoluciferase; NanoBret tracer 130 nM; 2 hours at 37 C.

T2 sequence (P48730 whole entry): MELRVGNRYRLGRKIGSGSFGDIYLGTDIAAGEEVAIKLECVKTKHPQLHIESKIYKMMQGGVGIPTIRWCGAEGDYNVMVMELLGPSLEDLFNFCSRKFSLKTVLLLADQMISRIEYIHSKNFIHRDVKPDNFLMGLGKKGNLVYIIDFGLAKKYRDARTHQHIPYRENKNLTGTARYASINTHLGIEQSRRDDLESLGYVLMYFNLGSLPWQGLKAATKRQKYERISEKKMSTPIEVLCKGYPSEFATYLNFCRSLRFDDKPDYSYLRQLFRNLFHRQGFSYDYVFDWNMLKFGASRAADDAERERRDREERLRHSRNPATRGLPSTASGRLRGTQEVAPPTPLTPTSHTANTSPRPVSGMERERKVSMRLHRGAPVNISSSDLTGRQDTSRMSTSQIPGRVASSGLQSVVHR
T1 sequence (P48730 whole entry): as above

The pIC50 is −log10 of the IC50, conventionally taken in molar units. Take `C[C@@H]1C[C@@H](C)n2nc(-c3ccc(F)cn3)c(-c3ccnc4[nH]ncc34)c2O1` (single isomer, unassigned) [Example 204, (5*R,7*R)-2-(S-Fluoropyridin-2-yl)-5,7-dimethyl-3-(1H-pyrazolo[3,4-b]pyridin-4-yl)-6,7-dihydro-5H-pyrazolo[5,1-b][1,3]oxazine]: the pIC50 in assay [1] was 7.89; on human CSNK1D, 6.52.

On to `CCn1ncc2cc(-c3c(-c4ccc(F)cc4)nn4c3COCC4C)cnc21` (stereo not shown) [Example 370, 3-(1-Ethyl-1H-pyrazolo[3,4-b]pyridin-5-yl)-2-(4-fluorophenyl)-7-methyl-6,7-dihydro-4H-pyrazolo[5,1-c][1,4]oxazine], for which the pIC50 in assay [1] was 6.28; at human CSNK1D it was under 5.00.

Take `Fc1ccc(-c2nn3c(c2-c2c(F)cnc4[nH]ncc24)COC2(C3)CC2(F)F)nc1` (single isomer, unassigned) [Example 435, (*R)-1′. 1′-Difluoro-3-(5-fluoro-1H-pyrazolo[3,4-b]pyridin-4-yl)-2-(5-fluoro-2-pyridyl)spiro[4,7-dihydropyrazolo[5,1-c][1,4]oxazine-6,2′-cyclopropane]]: the pIC50 was 8.30 in assay [1] and 7.31 at human CSNK1D.

For `Cc1cc(-c2c(-c3ccc(F)cn3)nn3c2CO[C@H](C)C3)c2cn[nH]c2n1` (single isomer, unassigned) [Example 87, (*R)-2-(5-Fluoro-2-pyridyl)-6-methyl-3-(6-methyl-1H-pyrazolo[3,4-b]pyridin-4-yl)-6,7-dihydro-4H-pyrazolo[5,1-c][1,4]oxazine], the pIC50 is 7.89 in assay [1] and 6.79 on human CSNK1D.

On to `Cc1cc(-c2c(-c3ccc(F)cc3)nn3c2C(C)(C)CC3)c2cn[nH]c2n1` [Example 246, 4-[2-(4-Fluorophenyl)-4,4-dimethyl-5,6-dihydropyrrolo[1,2-b]pyrazol-3-yl]-6-methyl-1H-pyrazolo[3,4-b]pyridine], for which the pIC50 is 8.30 in assay [1] and 7.24 at human CSNK1D.

As for `CC1(C)Cn2nc(-c3ccncc3Cl)c(-c3ccnc4[nH]ncc34)c2CO1` [Example 162, 2-(3-Chloropyridin-4-yl)-6,6-dimethyl-3-(1H-pyrazolo[3,4-b]pyridin-4-yl)-6,7-dihydro-4H-pyrazolo[5,1-c][1,4]oxazine], the pIC50 is 6.84 in assay [1] and under 5.00 on human CSNK1D.

`Fc1ccc(-c2nn3c(c2-c2ccnc4[nH]ccc24)CCC3)nc1` [Example 6, 4-(2-(5-Fluoropyridin-2-yl)-5,6-dihydro-4H-pyrrolo[1,2-b]pyrazol-3-yl)-1H-pyrrolo[2,3-b]pyridine]: the results for the pIC50 (in assay [1]; at human CSNK1D) were 9.00 and 7.46, respectively.

`Fc1ccc(-c2nn3c(c2-c2ccnc4[nH]ncc24)OCC2(COC2)C3)cc1` [Example 210, 2-(4-Fluorophenyl)-3-(1H-pyrazolo[3,4-b]pyridin-4-yl)spiro[5,7-dihydropyrazolo[5,1-b][1,3]oxazine-6,3′-oxetane]]: the pIC50 in assay [1] was over 9.30; at human CSNK1D, 7.64.

On to `COCC1(F)CCc2c(-c3cc(C)nc4[nH]ncc34)c(-c3ccc(F)cn3)nn2C1` (single isomer, unassigned) [Example 305, (*R)-4-[6-Fluoro-2-(5-fluoro-2-pyridyl)-6-(methoxymethyl)-5,7-dihydro-4H-pyrazolo[1,5-a]pyridin-3-yl]-6-methyl-1H-pyrazolo[3,4-b]pyridine], for which the values for the negative logarithm of the IC50 (pIC50) (in assay [1]; at human CSNK1D) were 7.05 and 5.55, respectively.

`Cc1nc(-c2c(-c3ccc(F)cc3)nn3c2CCC(F)(F)C3)c2cn[nH]c2n1` [Example 279, 4-[6,6-Difluoro-2-(4-fluorophenyl)-5,7-dihydro-4H-pyrazolo[1,5-a]pyridin-3-yl]-6-methyl-1H-pyrazolo[3,4-d]pyrimidine]: the pIC50 is 8.30 in assay [1] and 7.13 at human CSNK1D.

Take `Cc1cc(-c2c(-c3ccc(F)cc3)nn3c2CC(C)(C)C3)c2cn[nH]c2n1` [Example 232, 4-[2-(4-Fluorophenyl)-5,5-dimethyl-4,6-dihydropyrrolo[1,2-b]pyrazol-3-yl]-6-methyl-1H-pyrazolo[3,4-b]pyridine]: the pIC50 was 9.00 in assay [1] and 8.52 at human CSNK1D.

Turning to `Cc1nc(-c2c(-c3ccc(F)cc3)nn3c2COC(C(F)(F)F)C3)c2cn[nH]c2n1` (single isomer, unassigned) [Example 377, (*S)-2-(4-Fluorophenyl)-3-(6-methyl-1H-pyrazolo[3,4-d]pyrimidin-4-yl)-6-(trifluoromethyl)-6,7-dihydro-4H-pyrazolo[5,1-c][1,4]oxazine], the values for the pIC50 (in assay [1]; on human CSNK1D) were 7.34 and 5.61, respectively.

In the case of `CC[C@@]1(C)Cn2nc(-c3ccc(F)cn3)c(-c3ccnc4[nH]ncc34)c2CO1` (single isomer, unassigned) [Example 170, *S-6-Ethyl-2-(5-fluoropyridin-2-(l)-6-methyl-3-(1H-pyrazolo[3,4-b]pyridin-4-yl)-6,7-dihydro-4H-pyrazolo[5,1-c][1,4]oxazine], the figures for the pIC50 (in assay [1]; on human CSNK1D) were 8.70 and 7.38, respectively.

Turning to `Fc1ccc(-c2nn3c(c2-c2ccnc4[nH]ncc24)CO[C@@H](C(F)(F)F)C3)cc1` [Example 101, (R)-2-(4-Fluorophenyl)-3-(1H-pyrazolo[3,4-b]pyridin-4-yl)-6-(trifluoromethyl)-6,7-dihydro-4H-pyrazolo[5,1-c][1,4]oxazine], the pIC50 in assay [1] was 8.70; on human CSNK1D it was 7.62.

As for `Fc1ccc(-c2nn3c(c2-c2ccnc4[nH]ncc24)CCC(F)(COC(F)F)C3)nc1` (single isomer, unassigned) [Example 315, (*R)-4-(6-((Difluoromethoxy)methyl)-6-fluoro-2-(5-fluoropyridin-2-yl)-4,5,6,7-tetrahydropyrazolo[1,5-a]pyridin-3-yl)-1H-pyrazolo[3,4-b]pyridine], the pIC50 is 7.14 in assay [1] and 5.73 at human CSNK1D.

Consider `CC(C)C(=O)Nc1cc(-c2c(-c3ccc(F)cn3)nn3c2COC(C)(C)C3)ccn1` [Example 132, N-(4-(2-(5-Fluoropyridin-2-yl)-6,6-dimethyl-6,7-dihydro-4H-pyrazolo[5,1-c][1,4]oxazin-3-yl)pyridin-2-yl)isobutyramide], for which the values for the pIC50 (in assay [1]; on human CSNK1D) were 8.52 and 7.96, respectively.

`C[C@@]1(CF)CCc2c(-c3ccncc3)c(-c3ccc(F)cn3)nn2C1` (single isomer, unassigned) [Example 285, (*R)-6-(Fluoromethyl)-2-(5-fluoro-2-pyridyl)-6-methyl-3-(4-pyridyl)-5,7-dihydro-4H-pyrazolo[1,5-a]pyridine]: the pIC50 in assay [1] was 7.96; at human CSNK1D, 7.00.

In the case of `CC1(C)Cn2nc(-c3ccc(F)cn3)c(-c3ccnc4[nH]ccc34)c2CO1` [Example 147, 2-(5-Fluoropyridin-2-yl)-6,6-dimethyl-3-(1H-pyrrolo[2,3-b]pyridin-4-yl)-6,7-dihydro-4H-pyrazolo[5,1-c][1,4]oxazine], the pIC50 in assay [1] was 9.00; at human CSNK1D it was 7.96.

On to `C[C@H]1Cn2nc(-c3ccc(F)cn3)c(-c3ccnc4[nH]ncc34)c2CO1` (single isomer, unassigned) [Example 86, (*S)-2-(5-Fluoro-2-pyridyl)-6-methyl-3-(1H-pyrazolo[3,4-b]pyridin-4-yl)-6,7-dihydro-4H-pyrazolo[5,1-c][1,4]oxazine], for which the pIC50 in assay [1] is 7.54; at human CSNK1D it was 6.60.

Consider `Cc1cc(-c2c(-c3ccc(F)cn3)nn3c2OC(C)(C)C3)c2cn[nH]c2n1` [Example 368, 6-(5-Fluoro-2-pyridyl)-2,2-dimethyl-7-(6-methyl-1H-pyrazolo[3,4-b]pyridin-4-yl)-3H-pyrazolo[5,1-b]oxazole], for which the pIC50 in assay [1] was 8.15; at human CSNK1D it was 7.26.

Take `CC1(C)Cn2nc(-c3ccc(F)cc3)c(-c3ccnc4[nH]ncc34)c2CO1` [Example 144, 2-(4-Fluorophenyl)-6,6-dimethyl-3-(1H-pyrazolo[3,4-b]pyridin-4-yl)-6,7-dihydro-4H-pyrazolo[5,1-c][1,4]oxazine]: the negative-log IC50 (pIC50) was 9.00 in assay [1] and 8.52 at human CSNK1D.

On to `Fc1ccc(-c2nn3c(c2-c2ccnc4[nH]ncc24)C[C@H]2C[C@H]23)nc1` [Example 25, (4aR,5aR)-2-(5-Fluoropyridin-2-yl)-3-(1H-pyrazolo[3,4-b]pyridin-4-yl)-4,4a,5,5a-tetrahydrocyclopropa[4,5]pyrrolo[1,2-b]pyrazole], for which the pIC50 in assay [1] is 7.31; on human CSNK1D, 6.17.

Take `CC1(C)CCn2nc(-c3ccc(F)cc3)c(-c3ccnc4[nH]ncc34)c21` [Example 245, 4-[2-(4-Fluorophenyl)-4,4-dimethyl-5,6-dihydropyrrolo[1,2-b]pyrazol-3-yl]-1H-pyrazolo[3,4-b]pyridine]: the results for the pIC50 (in assay [1]; on human CSNK1D) were 8.30 and 7.37, respectively.

Regarding `Fc1ccc(-c2nn3c(c2-c2ccnc4[nH]ncc24)CCC(F)(COC(F)(F)F)C3)nc1` (single isomer, unassigned) [Example 317, (*R)-4-[6-Fluoro-2-(5-fluoro-2-pyridyl)-6-(trifluoromethoxymethyl)-5,7-dihydro-4H-pyrazolo[1,5-a]pyridin-3-yl]-1H-pyrazolo[3,4-b]pyridine], the pIC50 in assay [1] is 6.95; on human CSNK1D, 5.07.

For the molecule `FCC1Cn2nc(-c3ccc(F)cc3)c(-c3ccnc4[nH]ncc34)c2CO1` (single isomer, unassigned) [Example 104, (*S)-6-(Fluoromethyl)-2-(4-fluorophenyl)-3-(1H-pyrazolo[3,4-b]pyridin-4-yl)-6,7-dihydro-4H-pyrazolo[5,1-c][1,4]oxazine], the pIC50 in assay [1] is 8.40; at human CSNK1D, 7.31.

As to `CCC(=O)Nc1cc(-c2c(-c3ccc(F)cn3)nn3c2COC(C)(C)C3)c(C)cn1` [Example 379, N-(4-(2-(5-Fluoropyridin-2-yl)-6,6-dimethyl-6,7-dihydro-4H-pyrazolo[5,1-c][1,4]oxazin-3-yl)-5-methylpyridin-2-yl)propionamide], the pIC50 was 7.39 in assay [1] and 6.13 on human CSNK1D.

(Values after patent US20230339970A1, “CASEIN KINASE 1 DELTA MODULATORS” (priority 2020, published 2023).)
